Data set [1] in a line: Safety and adverse events of colistin nebulization (DHHS-CTCAE version 3.0). It is filed as in vivo, ICU patients. The note with it: 5 MIU q8, vibrating mesh nebulizer; 134 patients, 1376 days of nebulization. As to the method:
Patients received 5 MIU of CMS (Colimycine®, Sanofi, Paris, France) dissolved in 6 mL of saline solution by nebulization over 30 min using a vibrating-mesh nebulizer (Aeroneb Pro®, Aerogen, Galway, […]) every 8 h. Solutions for nebulization were freshly prepared. During aerosol delivery, all patients were sedated and received assisted/controlled mechanical ventilation with a tidal volume of 6–8 mL/kg of predicted body weight and respiratory rates of 12–15 cycles/min. The humidifier was removed and the nebulizer was inserted near the Y-piece connector on the inspiratory arm
VAP, septic shock, and acute kidney injury requiring continuous […] replacement therapy were defined according to current recommendations. VAP was diagnosed in the presence of radiological and clinical signs consisting of a new and persistent infiltrate on the chest radiograph associated with two of the three following criteria: purulent tracheal aspirates, hyperthermia > 38 °C or hypothermia < 36 °C, and peripheral leukocytosis > 10,000/μL or < 1500/μL. […] Safety and adverse events (AE) were determined through the biochemical abnormalities documented in medical records according to the Department of Health and Human Services—Common Terminology Criteria for Adverse Events (DHHS-CTCAE version 3.0) classification. […]

For data set [2] the following is noted: cited from earlier work. As to the method:
Despite the recent introduction of new antibiotics against difficult-to-treat bacteria, colistin is still used in the critically ill setting, especially as part of combination therapies. This drug is a antibiotic; it is administered as intravenous colistimethate (CMS) and then undergoes extensive plasmatic hydrolysis. CMS is mainly metabolized by the renal route apart from the amount that is modified to colistin. This agent is cleared by extra-renal, yet unknown, mechanisms, but its plasmatic levels may increase in the presence of renal failure due to the reduced clearance a ... || From a pharmacokinetic standpoint, CMS nebulization may overcome its negligible ELF penetration after intravenous administration. Although many factors may interfere with the reliability of the detected lung antibiotics concentration, including the diagnostic technique, the binding to inflammatory molecules, and the heterogeneity of lung aeration, it is widely accepted that CMS nebulization is the only strategy to obtain alveolar levels above MIC for mostly Gram-negative MDR pathogens. When treating VAP due to COS bacteria, a correct drug dose and nebulizer strategy should be reco ...

For data set [3] the following is noted: in vivo; cited from earlier work. From the text: In addition, the observed safety profile may be further improved by correct CMS ...
The test system of data set [4] is multidrug-resistant / COS Gram-negative VAP. The note with it: cited from earlier work. The text has this: There is pre-clinical evidence to support vibrating-mesh nebulizers, over jet and ultrasonic ones.
The nature of data set [5]: ELF pharmacokinetics of colistin and CMS after nebulization (micro-BAL, LC-MS/MS). It is filed as in vivo, ICU patients. Here is the method:
According to patients’ respiratory status, two micro-bronchoalveolar lavages (BALs) (40 mL of sterile 0.9% saline solution were blindly instilled through a telescopic catheter and immediately aspirated in a trap) were performed at steady state, before nebulization and 1 h after the end. ELF colistin concentration (COLELF) was calculated from BAL concentration (COLBAL) using urea as a dilution marker: COLELF = COLBAL X urea dilution index (plasma urea concentration/BAL urea concentration).
Purification and separation of colistin and CMS were performed using and modifying the Gobin assay. BAL samples were extracted by solid-phase extraction followed by evaporation to dryness and reconstitution in mobile phase. The chromatographic separation was carried out on an AQUITY UPLC C18 column. Polymyxin B was used as internal standard. The detection was performed on a triple quadrupole tandem mass spectrometer using multi-reaction monitoring via an electrospray ionization source with positive ionization mode.

Data set [6] deals with Acinetobacter baumannii isolates. The experiment in a line: Minimum inhibitory concentration of AB isolates. It is filed as cell-based. The note with it: median [interquartile range]; values available for 79 patients; Micronaut AST system-based BMD, VITEK 2 AST-N397 card; EUCAST version 11.0. Here is the method:
AB isolates were identified by using matrix-assisted laser desorption ionization-time of flight mass spectrometry (MALDI-TOF MS). Minimum inhibitory concentrations (MICs) were determined by a Micronaut AST system-based BMD, VITEK 2 AST-N397 card, according to the manufacturer’s instructions. EUCAST (version 11.0, 2021) clinical breakpoints were used to interpret MICs.

[7] abbreviates: 326 patients with COS Gram-negative VAP, aerosolized 2 MIU q 8 h, jet nebulizer.
Where [8] appears, read: following 24 h of dosing, vibrating meshes, ten patients with MDR VAP.

“Also recorded” adds a separate entry of the source. Peptide text beside a SMILES is read from it.

As for colistimethate [CMS], the “Drug-related / pulmonary adverse events of nebulization (in words)” value in data set [1] is recorded as “did not observe any”. For the same compound, in data set [2], the “ELF penetration after intravenous administration (in words)” value was “negligible”. Also, in data set [3], the Bronchospasm is recorded as 2%, the “Episodes of bronchospasm (in words)” value is recorded as “did not report any”, the Neuromuscular toxicity is listed as 3% and the “Reduction in the rate of renal failure” value was 33%. In data set [4] (5 MIU q8 h, vibrating plate nebulizer, 44 patients with multidrug-resistant AB and Pseudomonas aeruginosa vs 122 controls), the “Clinical cure rate vs controls treated with intravenous antibiotics (in words)” value is given as “similar”. Besides, in data set [4] (setting [7]), the “DAY-14 clinical failure rate (in words)” value was “significantly lower” and the “Mortality (in words)” value is listed as “without affecting”.
`CC[C@H](C)CCCCC(=O)N[C@@H](CCN)C(=O)N[C@H](C(=O)N[C@@H](CCN)C(=O)N[C@H]1CCNC(=O)[C@H]([C@@H](C)O)NC(=O)[C@H](CCN)NC(=O)[C@H](CCN)NC(=O)[C@H](CC(C)C)NC(=O)[C@@H](CC(C)C)NC(=O)[C@H](CCN)NC1=O)[C@@H](C)O` [colistin] (HELM PEPTIDE1{[CC[C@H](C)CCCCC(=O)[*:2]].[Dab].T.[Dab].[Dab].[Dab].[dL].L.[Dab].[Dab].T}$PEPTIDE1,PEPTIDE1,5:R3-11:R2$$$V2.0): in data set [1], the “Drug-related / pulmonary adverse events of nebulization (in words)” value is given as “did not observe any; also recorded: without observing any”. In addition, the “ELF concentration one hour after nebulization” value in data set [5] (median [IQR], 7 patients, after 72 h of nebulized therapy (CMS 5 MIU q8), micro-BAL, urea dilution index, UPLC C18, tandem MS) is 121.7 [40.1–143.1] mcg/mL. For the same compound, the “ELF colistin concentrations relative to CRAB minimal-inhibitory concentration (in words)” value in data set [5] (nebulized CMS 5 MIU q8) is reported as “far above”. In addition, the MIC in data set [6] is 1 [0.5–1] mcg/mL. For the same compound, the “Samples with colistin ELF concentrations above 10 mcg/mL” value in data set [2] (20 patients, 1 MIU nebulization, jet and ultrasonic machines, samples at 1 h after the aerosol) is recorded as 25%. In addition, in data set [2] (setting [8]), the “Trough-predicted colistin ELF level, 3 MII nebulized CMS” value is 120.4 µg/mL and the “Trough-predicted colistin ELF level, 5 MIU nebulized CMS” value is 200.7 µg/mL. Also, in data set [2], the “ELF penetration after intravenous administration (in words)” value is listed as “minimal”.
